In ChEMBL document CHEMBL1201862, “PubChem BioAssay data set” (2004) one finds AC50, IC50 and CC50 data, which are given here for 16 compounds.

Structures can show the parent of a compound that is named as a salt. Calls of active or inactive are those of the source. Some results are limits rather than exact numbers.

Assay [1] concerns the target T1, Long-chain-fatty-acid--AMP ligase FadD28 (Mycobacterium tuberculosis, UniProt P9WQ59).
T1 sequence (P9WQ59 whole entry): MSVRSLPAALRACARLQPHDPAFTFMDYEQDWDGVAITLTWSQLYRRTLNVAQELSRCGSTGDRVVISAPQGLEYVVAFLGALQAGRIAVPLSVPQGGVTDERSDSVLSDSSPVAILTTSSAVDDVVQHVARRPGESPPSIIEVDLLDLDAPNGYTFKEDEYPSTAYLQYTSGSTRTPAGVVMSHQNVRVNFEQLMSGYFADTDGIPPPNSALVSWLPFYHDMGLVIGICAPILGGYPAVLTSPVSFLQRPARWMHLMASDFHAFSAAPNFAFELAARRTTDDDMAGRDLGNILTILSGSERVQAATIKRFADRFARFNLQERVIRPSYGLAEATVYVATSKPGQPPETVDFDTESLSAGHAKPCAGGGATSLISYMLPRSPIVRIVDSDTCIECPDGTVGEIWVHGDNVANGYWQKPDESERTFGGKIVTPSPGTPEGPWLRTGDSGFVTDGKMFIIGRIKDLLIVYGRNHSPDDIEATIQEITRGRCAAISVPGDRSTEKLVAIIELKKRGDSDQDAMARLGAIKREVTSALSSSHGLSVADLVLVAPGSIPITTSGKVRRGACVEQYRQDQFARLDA
The experiment in a line: Fluorescence polarization aasay to screen for inhibitors that compete for the binding of FadD28 to a bisubstrate Measured in Biochemical System Using Plate Reader - 2147-01_Inhibitor_Dose_CherryPick_Activity. The class given is functional, Mycobacterium tuberculosis H37Rv. On the technique in general: Fluorescence polarisation rises when a labelled molecule tumbles more slowly, as on binding a larger partner.

Assay [2] has as its target T2, Sentrin-specific protease 1 (Homo sapiens, UniProt Q9P0U3).
T2 sequence (Q9P0U3 whole entry): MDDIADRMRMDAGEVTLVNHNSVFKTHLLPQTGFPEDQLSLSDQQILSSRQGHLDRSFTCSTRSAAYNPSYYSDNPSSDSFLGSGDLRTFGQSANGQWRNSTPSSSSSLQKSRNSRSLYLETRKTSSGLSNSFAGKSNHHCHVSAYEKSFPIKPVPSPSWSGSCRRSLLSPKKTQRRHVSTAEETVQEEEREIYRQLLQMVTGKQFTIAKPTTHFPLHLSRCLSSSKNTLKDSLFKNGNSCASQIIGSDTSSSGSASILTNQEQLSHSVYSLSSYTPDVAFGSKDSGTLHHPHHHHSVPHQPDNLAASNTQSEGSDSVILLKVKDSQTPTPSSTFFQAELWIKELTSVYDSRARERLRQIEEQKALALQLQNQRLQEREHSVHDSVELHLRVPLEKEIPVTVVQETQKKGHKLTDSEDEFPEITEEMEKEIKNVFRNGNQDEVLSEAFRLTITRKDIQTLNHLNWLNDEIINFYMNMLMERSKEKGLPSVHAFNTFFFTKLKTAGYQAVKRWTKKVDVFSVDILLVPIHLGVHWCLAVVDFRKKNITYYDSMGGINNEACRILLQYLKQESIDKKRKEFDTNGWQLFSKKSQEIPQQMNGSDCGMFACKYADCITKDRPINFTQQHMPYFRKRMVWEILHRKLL
In words: potency of human SENP1 inhibitors, dose response, biochemical, kinetic FRET (AID 651697). The following applies: read-out: IC50_Mean. The class given is functional.

In assay [3] the target is T2, Sentrin-specific protease 1. In words: Dose response confirmation of small molecule inhibitors of the catalytic domain of the SUMO protease, SENP1 in a FRET assay. The class given is functional. Conditions: read-out: IC50_Mean.
Assay [4] concerns the target T3, Leucine aminopeptidase (Plasmodium falciparum 3D7, UniProt Q8IL11).
T3 sequence (Q8IL11 whole entry): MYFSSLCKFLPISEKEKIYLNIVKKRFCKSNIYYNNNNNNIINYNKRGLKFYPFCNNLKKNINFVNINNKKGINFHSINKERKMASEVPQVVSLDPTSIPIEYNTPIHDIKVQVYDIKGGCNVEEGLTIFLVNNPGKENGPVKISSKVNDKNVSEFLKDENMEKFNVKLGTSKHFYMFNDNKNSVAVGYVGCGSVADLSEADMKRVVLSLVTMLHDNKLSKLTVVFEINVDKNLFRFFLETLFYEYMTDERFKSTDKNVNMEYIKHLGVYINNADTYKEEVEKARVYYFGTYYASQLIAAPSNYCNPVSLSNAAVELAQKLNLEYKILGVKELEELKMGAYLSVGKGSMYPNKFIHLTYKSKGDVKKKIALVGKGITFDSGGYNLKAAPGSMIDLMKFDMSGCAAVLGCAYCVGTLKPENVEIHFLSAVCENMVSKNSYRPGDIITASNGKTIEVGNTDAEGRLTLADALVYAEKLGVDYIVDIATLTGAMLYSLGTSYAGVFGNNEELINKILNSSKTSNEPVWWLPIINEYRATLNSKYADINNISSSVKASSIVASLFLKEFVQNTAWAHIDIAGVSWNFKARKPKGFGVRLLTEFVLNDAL
In words: P. falciparum M17LAP inhibitors, primary screen, biochemical, fluorogenic H-Leu-NHMec substrate, 1536-well (AID 1619). The assay is classed as functional.

Assay [5] deals with T4, Carboxy-terminal domain RNA polymerase II polypeptide A small phosphatase 1 (Homo sapiens, UniProt Q9GZU7).
T4 sequence (Q9GZU7 whole entry): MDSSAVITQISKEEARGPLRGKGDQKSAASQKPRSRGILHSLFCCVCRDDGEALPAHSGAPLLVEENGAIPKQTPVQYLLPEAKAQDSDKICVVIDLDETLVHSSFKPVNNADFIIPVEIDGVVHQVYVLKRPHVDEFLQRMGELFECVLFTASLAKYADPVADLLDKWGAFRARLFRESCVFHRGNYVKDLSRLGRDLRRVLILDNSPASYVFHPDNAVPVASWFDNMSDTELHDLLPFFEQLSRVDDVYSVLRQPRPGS
In words: inhibitors of CTDSP1, concentration-response testing, biochemical assay, absorbance-based, actives from ultra-high-throughput screening (AID 540297). The assay is classed as functional.

Assay [6] is described as follows: intracellular Trypanosoma cruzi inhibitors in host cells – cell-based, plate reader, cherry-pick samples, set 3, dose response (AID 651818).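 Also: compounds incubated with infected cells for about four days.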 The class given is functional.
For assay [7], the target named is Paired box protein Pax-8 (Homo sapiens, UniProt Q06710). In words: inhibitors of PAX8-driven TPO luciferase reporter, dose response, RMG-I cells, cherry-pick (AID 687027).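 Also: luciferase reporter driven by Pax8 target thyroperoxidase promoter measured by SteadyGlo luminescence.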 The class given is functional, cell-based. (In general: In a reporter assay the amount or activity of a reporter protein is the signal.)
A short description of assay [8]: cytotoxicity in OVCAR8 ovarian cancer cells, dose response, PAX8 project, cell-based, plate reader, dry powder samples (AID 743197). The assay is classed as functional. Conditions: OVCAR-8.
A short description of assay [9]: NIH:OVCAR-3 ovarian cancer cell cytotoxicity, dose response, PAX8 inhibitor project, plate reader, dry powder samples (AID 743044). The class given is functional, cell-based.
Assay [10] is described as follows: IGROV1 ovarian cancer cell cytotoxicity, dose response, PAX8 inhibitor project, plate reader, dry powder samples (AID 743043). The assay is classed as functional, cell-based. Conditions: IGROV-1.
Assay [11] can be described thus: HEp-2 cell cytotoxicity, dose response, cytotoxicity control for RSV inhibitor project, HTS (AID 2410). The assay is classed as functional. Conditions: human respiratory syncytial virus.
Assay [12] is described as follows: Luminescence Cell-Based Dose Retest to Confirm Inhibitors of Cancer Stem Cells. [Related pubchem assays (depositor defined):AID2717, AID2721]. The class given is functional. Conditions: Homo sapiens.
For assay [13], the target named is T5, Polyadenylate-binding protein 1 (Homo sapiens, UniProt P11940). In words: PABP1 MLLE–PAM2 interaction inhibitors, dose response, miRNA deadenylation inhibitor project, biochemical, fluorescence polarization, Cy5-PAM2 peptide, secondary (AID 602260). The assay is classed as functional. The following applies: read-out: IC50_Mean.
In assay [14] the target is T5, Polyadenylate-binding protein 1. In words: PABP1 MLLE–PAM2 binding inhibitor potency, dose response, biochemical, fluorescence polarization, FITC-PAM2 peptide (AID 602259). The class given is functional. Conditions: read-out: IC50_Mean.

Chain of Paired box protein Pax-8 (Q06710 whole entry): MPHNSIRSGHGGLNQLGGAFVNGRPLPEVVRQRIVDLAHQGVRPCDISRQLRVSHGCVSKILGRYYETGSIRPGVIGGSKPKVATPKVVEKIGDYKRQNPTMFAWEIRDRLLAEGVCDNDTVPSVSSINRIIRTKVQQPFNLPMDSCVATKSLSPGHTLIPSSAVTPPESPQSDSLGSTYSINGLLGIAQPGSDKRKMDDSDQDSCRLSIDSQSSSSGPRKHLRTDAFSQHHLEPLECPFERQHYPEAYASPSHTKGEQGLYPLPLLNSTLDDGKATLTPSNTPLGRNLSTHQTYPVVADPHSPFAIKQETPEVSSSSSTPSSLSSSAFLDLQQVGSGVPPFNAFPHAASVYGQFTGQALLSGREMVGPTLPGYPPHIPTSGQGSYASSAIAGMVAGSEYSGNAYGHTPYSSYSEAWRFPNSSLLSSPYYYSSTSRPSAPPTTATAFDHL
T5 sequence (P11940 whole entry): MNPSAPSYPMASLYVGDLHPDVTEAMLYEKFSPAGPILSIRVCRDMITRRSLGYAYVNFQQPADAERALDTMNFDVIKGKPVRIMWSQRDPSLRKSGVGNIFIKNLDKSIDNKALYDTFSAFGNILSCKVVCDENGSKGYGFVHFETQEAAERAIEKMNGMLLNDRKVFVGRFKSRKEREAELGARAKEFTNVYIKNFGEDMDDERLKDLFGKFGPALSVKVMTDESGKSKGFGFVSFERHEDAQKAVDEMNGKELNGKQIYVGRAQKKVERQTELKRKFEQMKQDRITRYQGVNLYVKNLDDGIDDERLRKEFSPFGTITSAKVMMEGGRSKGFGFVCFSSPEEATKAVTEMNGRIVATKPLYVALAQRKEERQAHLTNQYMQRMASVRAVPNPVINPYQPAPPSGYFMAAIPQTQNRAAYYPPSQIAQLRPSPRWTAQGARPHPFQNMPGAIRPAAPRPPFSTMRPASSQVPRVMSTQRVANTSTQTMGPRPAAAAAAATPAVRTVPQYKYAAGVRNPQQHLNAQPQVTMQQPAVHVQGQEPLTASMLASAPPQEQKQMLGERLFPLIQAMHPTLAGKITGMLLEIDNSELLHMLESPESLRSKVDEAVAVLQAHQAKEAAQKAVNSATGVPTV

As a reminder, the AC50 is the midpoint of the concentration-response curve, whichever way the signal moves. With `O=C(COc1ncnc2c1cnn2-c1ccccc1)Nc1ccc(S(=O)(=O)N2CCCCC2)cc1`, in assay [1], the AC50 is > 100 µM (inactive).
For the compound `CCc1ccccc1NC(=O)CN(C)C(=O)CSc1nnc(Nc2cccc(C)c2C)s1`, in assay [1], the AC50 is 4.79 µM (active).
As to `COc1ccc(/C=C2\CCCc3c2nc2ccc(C)cc2c3C(=O)O)cc1O`, the AC50 in assay [1] is 79.3 µM (active).
Turning to `COc1cc(O)c(C=Nc2ccccc2NS(=O)(=O)c2ccc(C)cc2)c(OC)c1`, the IC50 in assay [2] is 16.1 µM (active); in assay [3], 15.2 µM (active).
Consider `O=C(O)c1ccc(/C=N/NC(=O)c2cc(-c3ccc4c5c(cccc35)CC4)[nH]n2)cc1`, for which the IC50 is 26.8 µM (active) in assay [4] and 4.31 µM (active) in assay [5].
As for `CCOc1cc(/C=C2\S/C(=N\c3ccccc3)N(c3ccccc3)C2=O)ccc1OCC(=O)O`, the IC50 in assay [4] was 31.3 µM (active).
For `C[C@H](CO)N1C[C@H](C)[C@H](CN(C)Cc2ccc(C(F)(F)F)cc2)Oc2ccc(NC(=O)Nc3ccc(C(F)(F)F)cc3)cc2CC1=O`, the AC50 in assay [6] is 2.66 µM (active).
On the same count and under the same terms, as for `C[C@H]1CN([C@@H](C)CO)C(=O)c2cccc(NC(=O)C3CC3)c2O[C@@H]1CN(C)Cc1ccc(Oc2ccccc2)cc1`, the figure is 3.64 µM (active).
Consider `C[C@@H]1CCCCO[C@@H](CN(C)Cc2ccc(Cl)c(Cl)c2)[C@H](C)CN([C@H](C)CO)C(=O)c2cc(NC(=O)Nc3ccc(F)cc3)ccc2O1`, for which the AC50 in assay [7] was 5.06 µM (active); in [8] it was > 70 µM (inactive).
For the compound `O=C(Nc1cccc(F)c1)N1CCCCN2[C@@H](CO)[C@@H](c3ccc(-c4ccccc4F)cc3)[C@@H]2C1`, the AC50 in [7] is 21.1 µM (active); in [9] it was 37.6 µM (active); in assay [10], 26.9 µM (active).
Consider `C[C@@H]1CN([C@H](C)CO)S(=O)(=O)c2ccc(C#Cc3cccc(F)c3)cc2O[C@@H]1CN(C)C(=O)NC1CCCCC1`, for which the AC50 in assay [7] is 8.38 µM (active); in [9], 42.1 µM (active); in assay [8] it was 33.6 µM (active).
With `C[C@H]1CN([C@@H](C)CO)C(=O)c2c(c3ccccc3n2C)-c2ccccc2CO[C@@H]1CN(C)Cc1cccc(C(F)(F)F)c1`, the figures for the AC50 in [7], in assay [10] and in [8] were 9.89 µM (active), 53 µM (active) and 43.7 µM (active), respectively.
In the case of `COc1ccc(C2C(C(C)=O)=C(C)N=c3s/c(=C\c4ccco4)c(=O)n32)c(OC)c1` (configuration not stated), the IC50 in [2] is 24.9 µM (inactive); in [3], 20.2 µM (inactive).
Take `C/C(CCC1CC(C)OC1=O)=N/Nc1nc(-c2ccccc2)cs1` (configuration not stated): in assay [4], the IC50 was 30.8 µM (active).
For orientation: CC50 means the concentration giving 50% cytotoxicity. For the compound `CN(C)c1ccc(/C=N/NC(=O)/C(O)=C\C2=NC3(CCCC3)Cc3ccccc32)cc1`, the CC50 in assay [11] is 25.8 µM (active). The AC50 in assay [12] was 3.54 µM (active). In addition, the values for the IC50 in assay [2] and in [3] were 10.1 µM (active) and 13.2 µM (active), respectively.
Turning to `CN1Cc2c(N)cccc2C(c2ccccc2)C1` (configuration not stated) [NOMIFENSINE MALEATE], the IC50 in [13] is > 66 µM (inactive); in assay [14], > 66 µM (inactive); in [2] it was 8.36 µM (active); in assay [3] it was 8.71 µM (active).
